Results: patent US10087178B2, “Substituted spiropyrido[1,2-a]pyrazine derivative and medicinal use thereof as HIV integrase inhibitor” (priority 2012, dated 2018)
Structures can show the parent of a compound that is named as a salt. Where two headings read alike, the source gives them in different places.

Test system: HIV-1 NL4-3 strain
Assay: Evaluation of antiviral activity: acute infection system of MT-4 cell with HIV-1 NL4-3 strain
Type: cell-based
Conditions: Human immunodeficiency virus 1, NL43, MT4, 120 h
[1] = antiviral activity, MT-4 cells infected with HIV-1 NL4-3 (MOI 0.05), 5 days culture, Cell Titer-Glo luminescence, read-out: EC50
[2] = MT-4 cells infected with HIV-1 NL4-3 strain (MOI 0.05), cultured 5 days, Cell Titer-Glo, read-out: antiviral activity (EC50)

Row | SMILES | EC50 [1] | EC50 [2]
1 | CN1C[C@]2(C[C@H](OCc3ccccc3)C2)n2cc(C(=O)NCc3ccc(F)cc3F)c(=O)c(O)c2C1=O [Example S10, cis-3-(benzyloxy)-N-(2,4-difluorobenzyl)-9′-hydroxy-2′-methyl-1′,8′-dioxo-1′,2′,3′,8′-tetrahydrospiro[cyclobutane-1,4′-pyrido[1,2-a]pyrazine]-7′-carboxamide hydrochloride] | 6.1 nM | 
2 | CN1C[C@]2(C[C@@H](O)C2)n2cc(C(=O)NCc3ccc(F)cc3F)c(=O)c(O)c2C1=O [Example S11, N-(2,4-difluorobenzyl)- trans-3,9′-dihydroxy-2′-methyl-1′,8′-dioxo-1′,2′,3′,8′-tetrahydrospiro[cyclobutane-1,4′-pyrido[1,2-a]pyrazine]-7′-carboxamide hydrobromide] | 25 nM | 
3 | CN1C[C@]2(C[C@H](O)C2)n2cc(C(=O)NCc3ccc(F)cc3F)c(=O)c(O)c2C1=O [Example S12, N-(2,4-difluorobenzyl)-cis-3,9′-dihydroxy-2′-methyl-1′,8′-dioxo-1′,2′,3′,8′-tetrahydrospiro[cyclobutane-1,4′-pyrido[1,2-a]pyrazine]-7′-carboxamide hydrobromide] | 23 nM | 
4 | CO[C@H]1C[C@@]2(CN(C)C(=O)c3c(O)c(=O)c(C(=O)NCc4ccc(F)cc4F)cn32)C1 [Example S13, N-(2,4-difluorobenzyl)-9′-hydroxy-trans-3-methoxy-2′-methyl-1′,8′-dioxo-1′,2′,3′,8′-tetrahydrospiro[1,2-a]pyrazine]-1,4′-pyrido[1,2-a]pyrazine]-7′-carboxamide hydrochloride] | 4.5 nM | 
5 | CO[C@H]1C[C@]2(CN(C)C(=O)c3c(O)c(=O)c(C(=O)NCc4ccc(F)cc4F)cn32)C1 [Example S14, N-(2,4-difluorobenzyl)-9′-hydroxy-cis-3-methoxy-2′-methyl-1′,8′-dioxo-1′,2′,3′,8′-tetrahydrospiro[cyclobutane-1,4′-pyrido[1,2-a]pyrazine]-7′-carboxamide hydrochloride] | 3.9 nM | 
6 | CCN1C[C@]2(C[C@@H](OCc3ccccc3)C2)n2cc(C(=O)NCc3ccc(F)cc3F)c(=O)c(O)c2C1=O [Example S15, trans-3-(benzyloxy)-N-(2,4-difluorobenzyl)-2′-ethyl-9′-hydroxy-1′,8′-dioxo-1′,2′,3′,8′-tetrahydrospiro[cyclobutane-1,4′-pyrido[1,2-a]pyrazine]-7′-carboxamide hydrochloride] | 6.9 nM | 
7 | CCN1C[C@]2(C[C@H](OCc3ccccc3)C2)n2cc(C(=O)NCc3ccc(F)cc3F)c(=O)c(O)c2C1=O [Example S16, cis-3-(benzyloxy)-N-(2,4-difluorobenzyl)-2′-ethyl-9′-hydroxy-1′,8′-dioxo-1′,2′,3′,8′-tetrahydrospiro[cyclobutane-1,4′-pyrido[1,2-a]pyrazine]-7′-carboxamide hydrochloride] | 7.8 nM | 
8 | CCN1C[C@]2(C[C@@H](O)C2)n2cc(C(=O)NCc3ccc(F)cc3F)c(=O)c(O)c2C1=O [Example S17, N-(2,4-difluorobenzyl)-2′-ethyl-trans-3,9′-dihydroxy-1′,8′-dioxo-1′,2′,3′,8′-tetrahydrospiro[cyclobutane-1,4′-pyrido[1,2-a]pyrazine]-7′-carboxamide hydrobromide] | 20 nM | 
9 | CCN1C[C@]2(C[C@H](O)C2)n2cc(C(=O)NCc3ccc(F)cc3F)c(=O)c(O)c2C1=O [Example S18, N-(2,4-difluorobenzyl)-2′-ethyl-cis-3,9′-dihydroxy-1′,8′-dioxo-1′,2′,3′,8′-tetrahydrospiro[cyclobutane-1,4′-pyrido[1,2-a]pyrazine]-7′-carboxamide hydrobromide] | 16 nM | 
10 | CCN1C[C@]2(C[C@@H](OC)C2)n2cc(C(=O)NCc3ccc(F)cc3F)c(=O)c(O)c2C1=O [Example S19, N-(2,4-difluorobenzyl)-2′-ethyl-9′-hydroxy-trans-3-methoxy-1′,8′-dioxo-1′,2′,3′,8′-tetrahydrospiro[cyclobutane-1,4′-pyrido[1,2-a]pyrazine]-7′-carboxamide hydrochloride] | 4.8 nM | 
11 | CCN1C[C@]2(C[C@H](OC)C2)n2cc(C(=O)NCc3ccc(F)cc3F)c(=O)c(O)c2C1=O [Example S20, N-(2,4-difluorobenzyl)-2′-ethyl-9′-hydroxy-cis-3-methoxy-1′,8′-dioxo-1′,2′,3′,8′-tetrahydrospiro[cyclobutane-1,4′-pyrido[1,2-a]pyrazine]-7′-carboxamide hydrochloride] | 3.5 nM | 
12 | CCO[C@H]1C[C@]2(CN(CC)C(=O)c3c(O)c(=O)c(C(=O)NCc4ccc(F)cc4F)cn32)C1 [Example S21, N-(2,4-difluorobenzyl)-cis-3-ethoxy-2′-ethyl-9′-hydroxy-1′,8′-dioxo-1′,2′,3′,8′-tetrahydrospiro[cyclobutane-1,4′-pyrido[1,2-a]pyrazine]-7′-carboxamide hydrochloride] | 3.8 nM | 
13 | CC(C)N1C[C@]2(C[C@H](CO)C2)n2cc(C(=O)NCc3ccc(F)cc3F)c(=O)c(O)c2C1=O [Example S22, N-(2,4-difluorobenzyl)-9′-hydroxy-cis-3-(hydroxymethyl)-2′-isopropyl-1′,8′-dioxo-1′,2′,3′,8′-tetrahydrospiro[cyclobutane-1,4′-pyrido[1,2-a]pyrazine]-7′-carboxamide hydrobromide] |  | 5 nM
14 | COC[C@H]1C[C@]2(CN(C(C)C)C(=O)c3c(O)c(=O)c(C(=O)NCc4ccc(F)cc4F)cn32)C1 [Example S23, N-(2,4-difluorobenzyl)-9′-hydroxy-2′-isopropyl-cis-3-(methoxymethyl)-1′,8′-dioxo-1′,2′,3′,8′-tetrahydrospiro[cyclobutane-1,4′-pyrido[1,2-a]pyrazine]-7′-carboxamide hydrochloride] |  | 6.3 nM
15 | CC(C)N1C[C@]2(C[C@@H](CO)C2)n2cc(C(=O)NCc3ccc(F)cc3F)c(=O)c(O)c2C1=O [Example S24, N-(2,4-difluorobenzyl)-9′-hydroxy-trans-3-(hydroxymethyl)-2′-isopropyl-1′,8′-dioxo-1′,2′,3′,8′-tetrahydrospiro[cyclobutane-1,4′-pyrido[1,2-a]pyrazine]-7′-carboxamide hydrobromide] |  | 16 nM
16 | COC[C@H]1C[C@@]2(CN(C(C)C)C(=O)c3c(O)c(=O)c(C(=O)NCc4ccc(F)cc4F)cn32)C1 [Example S25, N-(2,4-difluorobenzyl)-9′-hydroxy-2′-isopropyl-trans-3-(methoxymethyl)-1′,8′-dioxo-1′,2′,3′,8′-tetrahydrospiro[cyclobutane-1,4′-pyrido[1,2-a]pyrazine]-7′-carboxamide hydrochloride] |  | 7 nM
17 | CN1C[C@]2(C[C@@H](O)C2)n2cc(C(=O)NCc3cccc(Cl)c3F)c(=O)c(O)c2C1=O [Example S26, N-(3-chloro-2-fluorobenzyl)- trans-3,9′-dihydroxy-2′-methyl-1′,8′-dioxo-1′,2′,3′,8′-tetrahydrospiro[cyclobutane-1,4′-pyrido[1,2-a]pyrazine]-7′-carboxamide hydrochloride] |  | 3.4 nM
18 | CN1C[C@]2(C[C@H](O)C2)n2cc(C(=O)NCc3cccc(Cl)c3F)c(=O)c(O)c2C1=O [Example S27, N-(3-chloro-2-fluorobenzyl)- cis-3,9′-dihydroxy-2′-methyl-1′,8′-dioxo-1′,2′,3′,8′-tetrahydrospiro[cyclobutane-1,4′-pyrido[1,2-a]pyrazine]-7′-carboxamide hydrochloride] |  | 14 nM
19 | CCO[C@H]1C[C@@]2(CN(C)C(=O)c3c(O)c(=O)c(C(=O)NCc4cccc(Cl)c4F)cn32)C1 [Example S28, N-(3-chloro-2-fluorobenzyl)- trans-3-ethoxy-9′-hydroxy-2′-methyl-1′,8′-dioxo-1′,2′,3′,8′-tetrahydrospiro[cyclobutane-1,4′-pyrido[1,2-a]pyrazine]-7′-carboxamide hydrochloride] |  | 3.6 nM
20 | CCO[C@H]1C[C@]2(CN(C)C(=O)c3c(O)c(=O)c(C(=O)NCc4cccc(Cl)c4F)cn32)C1 [Example S29, N-(3-chloro-2-fluorobenzyl)- cis-3-ethoxy-9′-hydroxy-2′-methyl-1′,8′-dioxo-1′,2′,3′,8′-tetrahydrospiro[cyclobutane-1,4′-pyrido[1,2-a]pyrazine]-7′-carboxamide hydrochloride] |  | 4.3 nM
21 | CNC(=O)[C@H]1C[C@]2(CN(C(C)C)C(=O)c3c(O)c(=O)c(C(=O)NCc4ccc(F)cc4F)cn32)C1 [Example S30, N^7′-(2,4-difluorobenzyl)-9′-hydroxy-2′-isopropyl-N^3-methyl-1′,8′-dioxo-1′,2′,3′,8′-tetrahydrospiro[cyclobutane-1,4′-pyrido[1,2-a]pyrazine]- cis-3,7′-dicarboxamide hydrochloride] |  | 170 nM
22 | CC(C)N1C[C@]2(C[C@H](C(=O)N(C)C)C2)n2cc(C(=O)NCc3ccc(F)cc3F)c(=O)c(O)c2C1=O [Example S31, N^7′-(2,4-difluorobenzyl)-9′-hydroxy-2′-isopropyl-N^3-N^3-dimethyl-1′,8′-dioxo-1′,2′,3′,8′-tetrahydrospiro[cyclobutane-1,4′-pyrido[1,2-a]pyrazine]- cis-3,7′-dicarboxamide hydrochloride] |  | 24 nM
23 | CC(C)O[C@H]1C[C@@]2(CN(C(C)C)C(=O)c3c(O)c(=O)c(C(=O)NCc4ccc(F)cc4F)cn32)C1 [Example S32, N-(2,4-difluorobenzyl)-9′-hydroxy-trans-3-isopropoxy-2′-isopropyl-1′,8′-dioxo-1′,2′,3′,8′-tetrahydrospiro[cyclobutane-1,4′-pyrido[1,2-a]pyrazine]-7′-carboxamide hydrochloride] |  | 6.6 nM
24 | CC(C)O[C@H]1C[C@]2(CN(C(C)C)C(=O)c3c(O)c(=O)c(C(=O)NCc4ccc(F)cc4F)cn32)C1 [Example S33, N-(2,4-difluorobenzyl)-9′-hydroxy-cis-3-isopropoxy-2′-isopropyl-1′,8′-dioxo-1′,2′,3′,8′-tetrahydrospiro[cyclobutane-1,4′-pyrido[1,2-a]pyrazine]-7′-carboxamide hydrochloride] |  | 6.4 nM
